In assay [1] the target is T1, DCLK1-KD (residues 372-649) (Homo sapiens, UniProt O15075).
T1 construct: the DCLK1 kinase domain (DCLK1-KD; residues 372-649) by carrying out thermal stability assays; 8XHis tag with TEV protease cleavage site (N); made in house; host or cells: Escherichia coli C41(DE3)
T1 sequence (O15075 372-649 isoform O15075-2): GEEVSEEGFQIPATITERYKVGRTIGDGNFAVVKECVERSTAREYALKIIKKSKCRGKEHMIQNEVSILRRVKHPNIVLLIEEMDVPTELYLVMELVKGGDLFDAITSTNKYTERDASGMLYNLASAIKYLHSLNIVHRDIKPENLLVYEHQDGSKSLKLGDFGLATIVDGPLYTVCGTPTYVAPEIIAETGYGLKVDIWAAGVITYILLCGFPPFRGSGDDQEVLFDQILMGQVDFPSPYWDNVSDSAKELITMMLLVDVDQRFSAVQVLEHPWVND
Description: Thermal shift stability assay, DCLK1-KD. Format: binding. The conditions noted are these: compound titration 2.5 to 40 μM. The method, then: (§1) DCLK1 proteins were diluted in 150 mM NaCl, 20 mM Tris pH 8.0, 1 mM DTT to […] final concentration and assayed with the appropriate concentration of inhibitor in a total reaction volume of 25 μL. SYPRO Orange (Molecular Probes) was used as a fluorescence probe and detected at 530 nm. The data shown are representative of two independent experiments.

The next assay addresses T2, DCLK1-FL1Δ WT (Homo sapiens, UniProt O15075).
T2 sequence (O15075 50-686 isoform O15075-2): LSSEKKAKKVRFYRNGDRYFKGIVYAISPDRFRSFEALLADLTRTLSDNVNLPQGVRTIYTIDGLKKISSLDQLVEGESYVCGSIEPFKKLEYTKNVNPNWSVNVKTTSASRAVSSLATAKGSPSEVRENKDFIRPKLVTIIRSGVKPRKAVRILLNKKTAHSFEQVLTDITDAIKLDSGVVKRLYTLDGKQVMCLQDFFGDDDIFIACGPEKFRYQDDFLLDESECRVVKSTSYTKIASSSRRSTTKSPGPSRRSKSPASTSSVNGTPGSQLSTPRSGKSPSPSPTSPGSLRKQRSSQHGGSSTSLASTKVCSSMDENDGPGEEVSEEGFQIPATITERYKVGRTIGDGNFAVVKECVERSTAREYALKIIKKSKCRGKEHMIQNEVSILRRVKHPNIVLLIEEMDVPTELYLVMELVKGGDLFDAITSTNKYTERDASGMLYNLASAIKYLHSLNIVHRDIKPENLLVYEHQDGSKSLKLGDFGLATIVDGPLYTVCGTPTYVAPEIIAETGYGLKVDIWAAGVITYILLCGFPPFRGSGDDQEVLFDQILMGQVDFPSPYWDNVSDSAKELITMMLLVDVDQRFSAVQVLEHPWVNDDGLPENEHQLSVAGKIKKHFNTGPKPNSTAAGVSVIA
Description: SPR binding to immobilised DCLK1-FL1Δ WT (phosphorylated). The note with it: for Kd / kon, kinetic fitting: SPR, mean ± SEM; for Kd: 18 °C, DCLK1 FL1Δ WT immobilised; for kon, kinetic fitting: DCLK1 FL1Δ WT; for koff: read-out: koff, kinetic fitting. On the procedure: (§2) SPR studies were carried out on a Biacore 2000 instrument (Cytivia). Proteins were immobilised at 25 °C using standard amine coupling to a CM5 chip (Cytivia) in immobilisation buffer consisting of 10 mM HEPES pH 7.4, 150 mM NaCl, 1 mM TCEP, 0.005% Tween P20, 1% (v/v) DMSO. To the active flow, cells were coupled either DCLK1-FL1Δ D511N or WT to a final density of approximately 7000 RU, followed by surface deactivation with 1 M ethanolamine. For each protein, coupling was performed at a concentration of 2 µM protein in 10 mM sodium acetate buffer pH 4.0, 1% (v/v) DMSO final, in the presence 10 µM of the moderate affinity compound FMF-03-149-01 (IC50 ~400 nM)[28] to help to stabilise the kinase domain during immobilsiation at low pH. A blank immobilisation was performed on the reference flow cell.
(§3) Binding experiments were performed at 18 °C in running buffer consisting of 20 mM HEPES, pH 7.4, 150 mM NaCl, 1 mM tris(2-carboxyethyl)phosphine (TCEP), 0.005% (v/v) Tween-P20, and 2% (v/v) DMSO. Compounds (10 mM stocks in 100% DMSO) were diluted in DMSO to 500 µM (DCLK1-NEG) or 25 µM (all other compounds) then in running buffer (without DMSO) to achieve the starting concentration with a final DMSO concentration of 2% (v/v). Samples were then serially titrated in running buffer containing 2% (v/v) DMSO to prepare each final concentration series (seven-point, three-fold serial dilution, 10 µM−13.7 nM for DCLK1-NEG, or 500−0.68 nM for all other compounds). Solutions were injected in multi-cycle format (in duplicate) without regeneration (contact time 80 s, flow rate 75 μL/min, dissociation time 600 s), with an extra wash (50% DMSO) after each injection.
(§4) Steady-state/kinetic binding data were fitted using the S200 BIAevaluation software (GE Healthcare). Sensorgrams from reference surfaces and blank injections were subtracted from the raw data (double-referencing), followed by solvent correction. Kinetic rate constants (kon and koff values) were obtained by fitting to 1:1 Langmuir binding model. Reported binding data represent mean ± SEM for three or four independent experiments. The dissociative half-life life (t1/2) for each inhibitor complex with DCLK1 was calculated from the fitted dissociation rate constant (koff), according to the equation 1 (t1/2 = ln(2)/koff.)
(Surface plasmon resonance follows binding to a sensor surface in real time, without labels.)

Assay [2] addresses T3, DCLK1-FL1Δ D511N (Homo sapiens, UniProt O15075, D511N).
T3 construct: DCLK1-FL1Δ (residues 50-686); 8XHis tag with TEV protease cleavage site (N); made in house; host or cells: Escherichia coli C41(DE3)
Description: SPR binding to immobilised DCLK1-FL1Δ D511N (non-phosphorylated). The conditions noted are these: for Kd / kon, kinetic fitting: SPR; for kon, kinetic fitting: DCLK1 FL1Δ D511N; for koff: read-out: koff, kinetic fitting; for kon: read-out: kon (Fig. 5c). The method, then:
as §2, §3, §4

In another assay the test system is DCLK1. The conditions noted are these: N-ethyl substitution at R4; cited from earlier work.
The next assay concerns the target T4, DCLK1-KD G532V (Homo sapiens, UniProt O15075, G532V).
T4 construct: Truncated DCLK1 constructs, DCLK1-KD (residues 372-649); 8XHis tag with TEV protease cleavage site (N); made in house; host or cells: Escherichia coli C41(DE3)
T4 sequence (O15075 372-649 isoform O15075-2 G532V): T1 sequence (O15075 372-649 isoform O15075-2) with G161V
Description: Thermal shift stability assay, DCLK1-KD G532V. Format: binding. The conditions noted are these: XMD8-85 40 μM, versus DCLK1-KD WT. The method, then:
Thermal shift stability assays were performed as described previously. DCLK1 proteins were diluted in 150 mM NaCl, 20 mM Tris pH 8.0, 1 mM DTT to […] final concentration and assayed with the appropriate concentration of inhibitor in a total reaction volume of 25 μL. SYPRO Orange (Molecular Probes) was used as a fluorescence probe and detected at 530 nm. The data shown are representative of two independent experiments.

In assay [3] the target is T5, DCLK1-FL1Δ D511N tubulin polymerisation (MAP function) (Homo sapiens, UniProt O15075, D511N).
T5 construct: DCLK1-FL1Δ (residues 50-686); 8XHis tag with TEV protease cleavage site (N); made in house; host or cells: Escherichia coli C41(DE3)
T5 sequence (O15075 50-686 isoform O15075-2 D511N): T2 sequence (O15075 50-686 isoform O15075-2) with D462N
Description: Fluorescence-based Tubulin Polymerisation Assay with DCLK1-FL1Δ D511N. Type of assay: biochemical. The conditions noted are these: 80 μM, fluorescence (Fig. 5e). On the procedure: Tubulin polymerisation assay were performed using the Microtubule Polymerisation/Depolymerisation Fluorescence Kit (Cytoskeleton #BK011P) in accordance with the manufacturer’s instructions. DCLK1 (4 μΜ) was added to 50 μL tubulin reaction mix containing Buffer 1 (80 mM PIPES at pH 6.9, 2.0 mM MgCl2, 0.5 mM EGTA, 10 μM fluorescent reporter), guanosine triphosphate stock solution at 100 mM, and tubulin (10 mg/ml) stock solution, as described by the manufacturer. Paclitaxel, a control of tubulin polymerisation, was tested at 3 μM, and Νocodazole, a tubulin polymerisation inhibitor, was tested at 80 μΜ. DCLK1-IN-1 was tested at 20 and 40 μΜ with buffer alone as controls. Polymerisation leads to fluorescence enhancement due to incorporation of a fluorescence reporter into polymerising microtubules and was measured by excitation at 355 nm and emission at 460 nm. Readings were taken every 20 s on EnVision Multimode Plate Reader. Each condition was tested in duplicate with two independent batches of protein.

Assay [4] addresses T3, DCLK1-FL1Δ D511N. Put plainly: Thermal shift stability assay, DCLK1-FL1Δ D511N. Type of assay: binding. The conditions noted are these: 40 μM. The method, then: as §1
In assay [5] the target is T5, DCLK1-FL1Δ D511N tubulin polymerisation (MAP function). Put plainly: Tubulin polymerisation and pelleting assay with DCLK1-FL1Δ D511N. Type of assay: biochemical. The conditions noted are these: 40 μM, pelleting / SDS-PAGE (Fig. 5d). On the procedure:
Tubulin polymerisation assays were performed in buffer containing 80 mM PIPES at pH 6.9, 2.0 mM MgCl2, 0.5 mM EGTA, 2.5 mM β,γ-Methyleneguanosine 5’-triphosphate, and 10 μM tubulin and 5 μM DCLK1 for 1 h at 37 °C. For tubulin polymerisation in the presence of inhibitors, various concentrations of the inhibitors were first incubated with DCLK1 and allowed to stand on ice for 5 min before adding this mix to the tubulin polymerisation reaction. Following the tubulin polymerisation, the reaction mix was pelleted at 20,000 g for 20 min and the supernatant and the pellet fractions were run on a 12% SDS gel. The data shown are representative of two independent experiments.

The mark [6] stands for this setting: kinetic fitting (1:1 binding model).
The mark [7] stands for this setting: KD, kinetic fitting (1:1 binding model), 18 °C, DCLK1 FL1Δ D511N immobilised, mean ± SEM.
Setting [8] is: KD, steady state fitting, 18 °C, DCLK1 FL1Δ D511N immobilised, mean ± SEM.

Where a chain is given by its changes, count along the chain named. Marks after values point to notes of the source that are not given here.

T3 sequence (O15075 50-686 D511N): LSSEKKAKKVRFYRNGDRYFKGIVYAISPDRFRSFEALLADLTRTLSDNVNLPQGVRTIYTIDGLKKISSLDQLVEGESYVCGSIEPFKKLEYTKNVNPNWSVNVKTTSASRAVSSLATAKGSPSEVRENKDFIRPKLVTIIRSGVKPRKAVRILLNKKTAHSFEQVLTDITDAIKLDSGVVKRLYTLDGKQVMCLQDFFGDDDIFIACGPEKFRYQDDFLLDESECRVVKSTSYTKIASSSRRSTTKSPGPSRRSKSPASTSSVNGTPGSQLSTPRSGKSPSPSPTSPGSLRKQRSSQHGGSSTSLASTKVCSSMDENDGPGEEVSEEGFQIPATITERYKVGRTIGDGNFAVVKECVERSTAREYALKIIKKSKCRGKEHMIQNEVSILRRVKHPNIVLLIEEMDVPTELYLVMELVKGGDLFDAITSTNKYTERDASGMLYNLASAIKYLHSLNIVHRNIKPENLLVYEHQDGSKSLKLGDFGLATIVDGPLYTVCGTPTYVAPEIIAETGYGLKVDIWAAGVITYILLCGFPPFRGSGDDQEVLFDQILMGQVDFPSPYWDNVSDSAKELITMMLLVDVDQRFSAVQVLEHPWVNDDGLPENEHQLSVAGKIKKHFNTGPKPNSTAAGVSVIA

One may read the Kd as a measure of binding affinity in units of concentration. Lower therefore signals a tighter complex. For the compound `COc1cc(N2CCN(C)CC2)ccc1Nc1ncc2c(n1)N(C)c1ccc(C)cc1C(=O)N2CC(F)(F)F` [DCLK1-NEG], the “binding by shift in melting temperature (ΔTm)” value in assay [1] is listed as “severely reduced binding to DCLK1-KD”. Besides, the Kd is greater than 10000 nM at DCLK1-FL1Δ WT (steady state fitting) and greater than 10000 nM on DCLK1-FL1Δ D511N [2] (KD (weak binding to DCLK1), top concentration 10 µM).
What is called koff is the rate constant with which the complex falls apart. Broadly, the kon is a measure of how fast the partners come together. On to `CCN1C(=O)c2ccccc2N(C)c2nc(Nc3ccc(N4CCN(C)CC4)cc3OC)ncc21` [FMF-03-055-1], for which, in the assay with DCLK1, the “enhanced potency on DCLK1 compared to XMD8-85” value is 5 fold. Also, the Kd on DCLK1-FL1Δ WT (setting [6]) came out at 12 ± 2 nM; on DCLK1-FL1Δ WT (steady state fitting), 28 ± 2 nM; at DCLK1-FL1Δ D511N [2] (setting [7]) it was 13 nM; at DCLK1-FL1Δ D511N [2] (setting [8]), 24 ± 1 nM. For the same compound, the entries for the “kon, kinetic fitting” value on DCLK1-FL1Δ WT and at DCLK1-FL1Δ D511N [2] (mean ± SEM) were 9.6 ± 0.6 1/Ms (x 10^5) and 11 ± 4 1/Ms (x 10^5), respectively. In addition, the figures for the koff on DCLK1-FL1Δ WT and on DCLK1-FL1Δ D511N [2] were 0.011 ± 0.001 s⁻¹ and 0.014 ± 0.006 s⁻¹, respectively. Also, the kon at DCLK1-FL1Δ D511N [2] amounted to 1.1e+06 ± 400000 M⁻¹ s⁻¹.
In the case of `COc1cc(N2CCN(C)CC2)ccc1Nc1ncc2c(n1)N(C)c1ccccc1C(=O)N2C` [XMD8-85], in assay [1], the “binding by shift in melting temperature (ΔTm)” value was “bind DCLK1-KD”. Further, the Kd at DCLK1-FL1Δ WT (setting [6]) was 7.5 ± 0.3 nM; on DCLK1-FL1Δ WT (steady state fitting) it was 12 ± 2 nM; on DCLK1-FL1Δ D511N [2] (setting [7]) it was 8 nM; at DCLK1-FL1Δ D511N [2] (setting [8]), 14 ± 1 nM. Besides, the “kon, kinetic fitting” value at DCLK1-FL1Δ WT is reported as 22 ± 2 1/Ms (x 10^5); at DCLK1-FL1Δ D511N [2] (mean ± SEM) it was 12.8 ± 0.5 1/Ms (x 10^5). For the same compound, the koff on DCLK1-FL1Δ WT is 0.016 ± 0.001 s⁻¹; on DCLK1-FL1Δ D511N [2], 0.01 ± 0.001 s⁻¹. Also, the “effect of Gly532 to valine mutation on binding affinity” value at DCLK1-KD G532V is given as “considerably reduces XMD8-85 binding affinity”. Further, the kon on DCLK1-FL1Δ D511N [2] turned out to be 1.28e+06 ± 50000 M⁻¹ s⁻¹.
Take `COC(=O)Nc1nc2ccc(C(=O)c3cccs3)cc2[nH]1` [nocodazole]: the “effect on tubulin polymerisation” value in assay [3] and in assay [5] was “inhibits tubulin polymerisation” throughout. Moreover, at DCLK1-FL1Δ D511N [4], the “binding to DCLK1 by thermal stability assay” value was “does not bind”.
